Experimental findings from paper PMC8830019, “A sensitive, accurate, and high-throughput gluco-oligosaccharide oxidase-based HRP colorimetric method for assaying lytic polysaccharide monooxygenase activity” (Biotechnology for Biofuels and Bioproducts, 2022) are described below.

Structures are written as SMILES.

The target of this test is T1, SsGOOX (recombinant gluco-oligosaccharide oxidase) (Sarocladium strictum, UniProt Q6PW77).
T1 construct: gene gluO; T. reesei cbh1 signal peptide at N-terminus, C-terminal 6xHis; codon-optimised synthetic gene, secreted by Trichoderma reesei QM9414
T1 sequence (Q6PW77 26-499): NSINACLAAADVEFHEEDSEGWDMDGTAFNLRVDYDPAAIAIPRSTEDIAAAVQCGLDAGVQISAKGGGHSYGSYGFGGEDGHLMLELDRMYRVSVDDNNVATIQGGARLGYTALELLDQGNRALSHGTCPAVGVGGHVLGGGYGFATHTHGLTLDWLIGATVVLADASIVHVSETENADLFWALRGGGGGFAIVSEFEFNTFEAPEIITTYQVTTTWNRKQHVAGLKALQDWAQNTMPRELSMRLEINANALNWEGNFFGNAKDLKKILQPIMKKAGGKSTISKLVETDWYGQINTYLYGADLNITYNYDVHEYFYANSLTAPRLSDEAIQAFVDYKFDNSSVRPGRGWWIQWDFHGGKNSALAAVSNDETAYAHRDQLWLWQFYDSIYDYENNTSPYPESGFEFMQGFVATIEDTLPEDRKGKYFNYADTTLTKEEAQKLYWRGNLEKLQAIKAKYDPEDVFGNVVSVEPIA
Briefly: HRP-coupled colorimetric H2O2 assay (4-AAP / DCHBS, A515), modified Hill's model with substrate inhibition. It is filed as biochemical. The conditions noted are these: pH 7.0 phosphate, room temperature (about 26 C), 10 nM enzyme, 0.02-5 mM cellobiose; Hill-type fit with substrate inhibition; substrate inhibition constant; second site.

For `OC[C@H]1O[C@@H](O[C@H]2[C@H](O)[C@@H](O)C(O)O[C@@H]2CO)[C@H](O)[C@@H](O)[C@@H]1O` (stereo partly shown) [cellobiose], the Ki amounted to 995 µM.
